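Interpolation was linear, between the two tested concentrations surrounding the appropriate level; five concentrations were tested over 48 hours in 96-well plates. GI50 = concentration required for 50% inhibition of growth. TGI: total growth inhibition.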
Tests used:
Experiment in all cases: NCI tumour cell line growth inhibition, 48 h
[1] = system: ACHN renal
[2] = system: HOP-62 NSCLC
[3] = system: IGROV1 ovarian
[4] = system: KM12 colon
[5] = system: LOX IMVI melanoma
[6] = system: M14 melanoma
[7] = system: RPMI-8226 leukemia
[8] = system: HS 578T breast
[9] = system: HCC-2998 colon
[10] = system: PC-3 prostate

COc1ccccc1[N-]C(C1=C([O-])c2ccccc2C1=O)c1ccccc1.COc1ccccc1[N-]C(C1=C([O-])c2ccccc2C1=O)c1ccccc1.[Cu+2] (stereo not given)
GI50 [1]: 10.9 µM | TGI [1]: 74.7 µM | GI50 [2]: 25.2 µM | TGI [2]: 68.6 µM | GI50 [3]: 9.3 µM | TGI [3]: > 100 µM | GI50 [4]: 5.76 µM | TGI [4]: 43.1 µM | GI50 [5]: 8.64 µM | TGI [5]: 95.2 µM | GI50 [6]: 4.58 µM | TGI [6]: > 100 µM | GI50 [7]: 3.9 µM | TGI [7]: > 100 µM

CCOC(=O)c1c2c(n(CC(C)C)c1C)-c1nc[nH]c1C(=O)C2=O
GI50 [1]: 14.2 µM | TGI [1]: 27.2 µM | GI50 [2]: 19.1 µM | TGI [2]: 34.2 µM | GI50 [8]: 38.9 µM | TGI [8]: > 100 µM | GI50 [3]: 18.8 µM | TGI [3]: 36 µM | GI50 [4]: 16.9 µM | TGI [4]: 31.2 µM | GI50 [5]: 7.91 µM | TGI [5]: 20.5 µM | GI50 [6]: 23 µM | TGI [6]: 40.5 µM | GI50 [7]: 8.91 µM | TGI [7]: 21.6 µM

COc1cc2cc(Oc3ccc(NC(=O)Nc4ccc(Cl)c(C(F)(F)F)c4)cc3)c(C)nc2cc1OCCN1CCCCC1
GI50 [1]: 1.57 µM | TGI [1]: 2.92 µM | GI50 [9]: 1.85 µM | TGI [9]: 3.46 µM | GI50 [3]: 1.48 µM | TGI [3]: 2.94 µM | GI50 [4]: 1.64 µM | TGI [4]: 3.09 µM | GI50 [6]: 1.92 µM | TGI [6]: 3.78 µM | GI50 [10]: 1.27 µM | TGI [10]: 2.69 µM

CC1Oc2cc3c(-c4c(O)cc(O)c5c(O)c6c(cc45)OC(C)C(C)C6=O)c(O)cc(O)c3c(O)c2C(=O)C1C (stereo not given)
TGI [1]: 1.57 µM | TGI [9]: 1.63 µM | TGI [2]: 1.23 µM | TGI [8]: 0.459 µM | TGI [3]: 1.3 µM | TGI [4]: 1.51 µM | TGI [6]: 1.12 µM | TGI [10]: 0.698 µM | TGI [7]: 0.469 µM

O=C(NCCCCCCNC(=O)c1cccc2ccccc12)c1cccc2ccccc12
TGI [1]: > 100 µM | TGI [2]: 48.3 µM | TGI [3]: > 100 µM | TGI [4]: > 100 µM | TGI [5]: 44.3 µM | TGI [6]: > 100 µM | TGI [7]: > 100 µM

CN(C)c1ccc2c(NCCCCCCNc3ccnc4cc(N(C)C)ccc34)ccnc2c1
TGI [1]: 33.6 µM | TGI [9]: 70.7 µM | TGI [2]: 67.9 µM | TGI [4]: > 100 µM | TGI [6]: > 100 µM

N#CC(C#N)=Cc1ccc(-c2ccc(-c3nc4ccccc4s3)cc2)o1
GI50 [1]: 18.5 µM | TGI [1]: > 100 µM | GI50 [9]: 18.9 µM | TGI [9]: 45.1 µM | GI50 [2]: 11.4 µM | TGI [2]: 44.2 µM | GI50 [3]: 3.7 µM | TGI [3]: 56.3 µM | GI50 [4]: 16.9 µM | TGI [4]: > 100 µM | GI50 [5]: 15.1 µM | TGI [5]: 30.3 µM | GI50 [6]: > 100 µM | TGI [6]: > 100 µM | GI50 [10]: 9.54 µM | TGI [10]: 22.5 µM

CCCC(O)[C@@H](O)c1ccc2c(c1O)C(=O)c1c(OC)cccc1C2=O (stereo not given in full)
TGI [1]: > 100 µM | TGI [9]: 68.1 µM | TGI [2]: > 100 µM | TGI [3]: > 100 µM | TGI [4]: > 100 µM | TGI [5]: 80.4 µM | TGI [6]: 69.1 µM | TGI [7]: 38.2 µM

CCC[CH2][Sn]([CH2]CCC)([O]C(C)=O)[O]C(C)=O
GI50 [1]: 1.44 µM | TGI [1]: 2.75 µM | GI50 [9]: 1.53 µM | TGI [9]: 2.92 µM | GI50 [2]: 2.17 µM | TGI [2]: 3.9 µM | GI50 [3]: 1.32 µM | TGI [3]: 1.96 µM | GI50 [4]: 1.66 µM | TGI [4]: 3.77 µM | GI50 [5]: 0.916 µM | TGI [5]: 2.4 µM | GI50 [6]: 1.74 µM | TGI [6]: 4.26 µM | GI50 [7]: 0.321 µM | TGI [7]: 2.11 µM

CC1(Sc2ccccc2)CN(Cc2ccccc2)C1=O (stereo not given)
TGI [1]: > 100 µM | TGI [9]: > 100 µM | TGI [2]: > 100 µM | TGI [3]: > 100 µM | TGI [4]: > 100 µM | TGI [5]: > 100 µM | TGI [6]: > 100 µM | TGI [7]: > 100 µM

COC(=O)CCC(=O)N1Cc2cc(C)ccc2N(C(=O)CCC(=O)OC)Cc2cc(C)ccc21
TGI [1]: > 100 µM | TGI [2]: > 100 µM | TGI [3]: > 100 µM | TGI [4]: > 100 µM | TGI [5]: > 100 µM | TGI [6]: > 100 µM | TGI [7]: > 100 µM

O=C(CCN1CCCC1)Nc1ccc2c(NCc3ccc(F)cc3)c3ccccc3nc2c1
GI50 [1]: 0.483 µM | TGI [1]: 1.87 µM | GI50 [9]: 0.485 µM | TGI [9]: 2.03 µM | GI50 [2]: 0.611 µM | TGI [2]: 2.62 µM | GI50 [3]: 0.363 µM | TGI [3]: 1.5 µM | GI50 [4]: 0.431 µM | TGI [4]: 1.62 µM | GI50 [5]: 0.38 µM | TGI [5]: 1.48 µM | GI50 [6]: 1.07 µM | TGI [6]: 2.4 µM | GI50 [10]: 0.479 µM | TGI [10]: 1.9 µM

Cc1ccc(C(=O)Nc2ccc(S(=O)(=O)O)c3cc(S(=O)(=O)O)cc(S(=O)(=O)O)c23)cc1NC(=O)c1cccc(N)c1
TGI [1]: > 100 µM | TGI [9]: > 100 µM | TGI [2]: > 100 µM | TGI [8]: > 100 µM | TGI [3]: > 100 µM | TGI [4]: > 100 µM | TGI [6]: > 100 µM | TGI [10]: > 100 µM

CCOC(=O)C=C1CCN(C(=O)c2ccccc2)CC1
TGI [1]: > 100 µM | TGI [9]: > 100 µM | TGI [2]: > 100 µM | TGI [3]: > 100 µM | TGI [4]: > 100 µM | TGI [5]: > 100 µM | TGI [6]: > 100 µM | TGI [7]: > 100 µM

CC1=C2CCCC2C/C(=N/Nc2ccc([N+](=O)[O-])cc2[N+](=O)[O-])CC1 (stereo not given)
TGI [1]: > 100 µM | TGI [9]: > 100 µM | TGI [2]: > 100 µM | TGI [3]: > 100 µM | TGI [4]: > 100 µM | TGI [5]: > 100 µM | TGI [6]: > 100 µM | TGI [7]: > 100 µM

O=C1c2ccccc2C(=O)N1CC1(C(=O)O)NCCS1(=O)=O (stereo not given)
TGI [1]: > 100 µM | TGI [2]: > 100 µM | TGI [8]: > 100 µM | TGI [3]: > 100 µM | TGI [4]: > 100 µM | TGI [5]: > 100 µM | TGI [6]: > 100 µM | TGI [10]: > 100 µM | TGI [7]: > 100 µM

COc1cc2nc(Cl)nc(Nc3cccc(C(=O)/C=C/c4ccccc4)c3)c2cc1OC
GI50 [1]: 3.51 µM | TGI [1]: > 100 µM | GI50 [9]: 2.54 µM | TGI [9]: 5.56 µM | GI50 [2]: 3.71 µM | TGI [2]: 31.7 µM | GI50 [8]: 4.19 µM | TGI [8]: > 64.1 µM | GI50 [3]: 4.45 µM | TGI [3]: 42.9 µM | GI50 [4]: 2.45 µM | TGI [4]: > 100 µM | GI50 [6]: 5.01 µM | TGI [6]: > 100 µM | GI50 [10]: 3.86 µM | TGI [10]: 27.8 µM | GI50 [7]: 0.622 µM | TGI [7]: 3.48 µM

CC1CC2C(=O)NC(=O)C2c2[nH]c3ccccc3c21 (stereo not given)
TGI [1]: > 100 µM | TGI [2]: > 100 µM | TGI [3]: > 100 µM | TGI [4]: > 100 µM | TGI [5]: > 100 µM | TGI [6]: > 100 µM | TGI [7]: > 100 µM

CSc1nnc(CCSc2ccnc3c(C(F)(F)F)cccc23)o1
GI50 [1]: > 100 µM | TGI [1]: > 100 µM | GI50 [9]: 64.8 µM | TGI [9]: > 100 µM | GI50 [2]: 51.7 µM | TGI [2]: > 100 µM | GI50 [8]: 18 µM | TGI [8]: 73.2 µM | GI50 [3]: 83.2 µM | TGI [3]: > 100 µM | GI50 [4]: > 100 µM | TGI [4]: > 100 µM | GI50 [5]: > 100 µM | TGI [5]: > 100 µM | GI50 [10]: 88.4 µM | TGI [10]: > 100 µM | GI50 [7]: 33.5 µM | TGI [7]: > 100 µM

From PubChem BioAssay (NCI)
